Experimental data: patent publication US12649739B2, “Imidazoquinoline compound having anti-inflammatory, antifugal, antiparasitic, and anticancer activity” (PHARMA CINQ, LLC, priority 2020, dated 2026)

Key:
C. neoformans = details: in vitro, maximal inhibition
[1] = test system: A549 (lung cancer) cell line; assay: Cell viability, WST-1 assay, A549 cells; format: cell-based; details: 48 and 72 hours, WST-1, FIGS. 1 and 2
[2] = test system: PC3 (prostate cancer) cell line; assay: Cell viability, WST-1 assay, PC3 cells; format: cell-based; details: 48 and 72 hours, WST-1, FIGS. 3 and 4
[3] = test system: imiquimod-induced dermatitis; assay: Imiquimod-induced psoriasiform dermatitis in mice, topical ointment; format: in vivo

Compound	inhibition of C. neoformans growth (ceiling) (C. neoformans)	doses reducing cancer cell viability, relative to those required for similar reductions by compound AF [1]	doses reducing cancer cell viability, relative to those required for similar reductions by compound AF [2]	ear thickness (caliper measurements) ([3]; female Balb/C mice, 0.01% ointment topically on ears, started day 5 of imiquimod, FIG. 5)	PASI scoring (erythema, thickening, scaling, cumulative) ([3]; female Balb/C mice, 0.01% ointment topically on ears, started day 5 of imiquimod, FIGS. 6A-D)	efficacy in model of psoriasiform dermatitis ([3]; ointment concentration of 0.01%)
CCN(CC)CCCC(C)Nc1ccnc2cc(Cl)ccc12 (stereo not drawn) [Chloroquine]	about 40%	–	–	–	–	–
c1ccc(Oc2cccc(Cc3nc4cnc5ccccc5c4[nH]3)c2)cc1 [Compound GE, 2-(3-Phenoxybenzyl)-1H-imidazo[4,5-c]quinoline]	–	approximately 1/10	approximately 1/10	reduced imiquimod-induced inflammatory damage to mouse ears	reducing all three aspects of dermal inflammation captured by the PASI scoring system	effective
